Test results from PubChem BioAssay (NCI).
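Briefly, cells in 96-well plates were exposed to five compound concentrations for 48 h, and endpoints were estimated by linear interpolation. TGI is the concentration that stops growth completely.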

Assays:
Experiment in all cases: NCI anticancer screen, dose series, 48 h
A498 renal = test system: A498 renal
CCRF-CEM leukemia = test system: CCRF-CEM leukemia
COLO 205 colon = test system: COLO 205 colon
EKVX NSCLC = test system: EKVX NSCLC
HCT-116 colon = test system: HCT-116 colon
HCT-15 colon = test system: HCT-15 colon
HT29 colon = test system: HT29 colon
MCF7 breast = test system: MCF7 breast
NCI-H23 lung = test system: NCI-H23 lung
OVCAR-4 ovarian = test system: OVCAR-4 ovarian
RXF 393 renal = test system: RXF 393 renal
SK-MEL-5 melanoma = test system: SK-MEL-5 melanoma
SNB-19 CNS = test system: SNB-19 CNS
SNB-75 CNS = test system: SNB-75 CNS
SW-620 colon = test system: SW-620 colon
TK-10 renal = test system: TK-10 renal
U251 CNS = test system: U251 CNS
UACC-257 melanoma = test system: UACC-257 melanoma
UO-31 renal = test system: UO-31 renal
MALME-3M melanoma = test system: MALME-3M melanoma

Structure (SMILES) | TGI (A498 renal) [µM] | TGI (CCRF-CEM leukemia) [µM] | TGI (COLO 205 colon) [µM] | TGI (EKVX NSCLC) [µM] | TGI (HCT-116 colon) [µM] | TGI (HCT-15 colon) [µM] | TGI (HT29 colon) [µM] | TGI (MCF7 breast) [µM] | TGI (NCI-H23 lung) [µM] | TGI (OVCAR-4 ovarian) [µM] | TGI (RXF 393 renal) [µM] | TGI (SK-MEL-5 melanoma) [µM] | TGI (SNB-19 CNS) [µM] | TGI (SNB-75 CNS) [µM] | TGI (SW-620 colon) [µM] | TGI (TK-10 renal) [µM] | TGI (U251 CNS) [µM] | TGI (UACC-257 melanoma) [µM] | TGI (UO-31 renal) [µM] | TGI (MALME-3M melanoma) [µM]
O=c1c2cc(I)ccc2nc(SCc2nncs2)n1Cc1ccccc1 | 65.1 | 70.8 | > 100 | 48.6 | > 100 | > 100 | > 100 | > 100 | > 100 | > 100 | 81.6 | 88.3 | > 100 | 74.9 | > 100 | > 100 | > 100 | > 100 | 2.6 | –
Nc1ccc2c(O)cc(=O)[nH]c2n1 | – | – | > 100 | > 100 | > 100 | > 100 | > 100 | > 100 | > 100 | > 100 | > 100 | > 100 | > 100 | > 100 | > 100 | > 100 | > 100 | > 100 | > 100 | > 100
CC(=O)Nc1ccc(NCC(=O)Nn2cnc3ccc(S(=O)(=O)Nc4ccc(NC(C)=O)cc4)cc3c2=O)cc1 | – | > 100 | > 100 | > 100 | > 100 | > 100 | > 100 | > 100 | > 100 | > 100 | – | – | > 100 | > 100 | > 100 | > 100 | > 100 | > 100 | > 100 | > 100
CC(Nc1ncc2c(n1)-c1ccccc1OC2)C(=O)O (stereo not given) | – | > 100 | > 100 | > 100 | > 100 | > 100 | > 100 | > 100 | > 100 | > 100 | > 100 | > 100 | > 100 | > 100 | > 100 | > 100 | > 100 | > 100 | > 100 | > 100
COc1ccc(N=N/C(=N/NC(=O)c2ccc(C)cc2)c2ccc(N(CCC#N)CCC#N)cc2OC)cc1 | > 100 | – | > 100 | > 100 | > 100 | > 100 | > 100 | > 100 | > 100 | > 100 | > 100 | > 100 | > 100 | – | > 100 | > 100 | > 100 | > 100 | > 100 | > 100
CCc1n[nH]c(=O)n1/N=C/c1ccccc1O | – | > 100 | > 100 | > 100 | > 100 | > 100 | – | > 100 | > 100 | > 100 | > 100 | > 100 | > 100 | > 100 | > 100 | > 100 | > 100 | > 100 | > 100 | –
Cc1ccn2c(=O)cc(CN3CCOCC3)nc2c1 | – | > 100 | > 100 | > 100 | > 100 | > 100 | > 100 | > 100 | > 100 | > 100 | – | – | > 100 | > 100 | > 100 | > 100 | > 100 | > 100 | > 100 | > 100
COc1ccccc1NC(=S)N/N=C/c1c(C)n(C)n(-c2ccccc2)c1=O | > 100 | > 100 | > 100 | > 100 | > 100 | > 100 | > 100 | > 100 | > 100 | > 100 | > 100 | > 100 | > 100 | > 100 | > 100 | > 100 | > 100 | > 100 | > 100 | –
CN(C)CCCc1cccc2[nH]c3c(c12)CN(C)CC3 | – | > 100 | > 100 | > 100 | > 100 | > 100 | > 100 | > 100 | > 100 | > 100 | > 100 | > 100 | > 100 | > 100 | > 100 | > 100 | > 100 | > 100 | > 100 | > 100
Cc1ccc(S(=O)(=O)NC(=O)NCCc2cnc[nH]2)cc1 | > 100 | – | > 100 | > 100 | > 100 | > 100 | > 100 | > 100 | > 100 | > 100 | > 100 | > 100 | > 100 | > 100 | > 100 | > 100 | > 100 | – | > 100 | > 100
O=c1[nH]c2ccccc2c(=O)n1/N=C/c1ccc(O)cc1 | > 100 | > 100 | > 100 | > 100 | > 100 | > 100 | > 100 | > 100 | > 100 | – | – | > 100 | > 100 | > 100 | > 100 | > 100 | > 100 | > 100 | > 100 | –
CCOC(=O)c1c[nH]c2c(Sc3ccccc3)nccc2c1=O | > 100 | > 100 | > 100 | > 100 | > 100 | > 100 | > 100 | > 100 | > 100 | > 100 | – | > 100 | > 100 | > 100 | > 100 | > 100 | > 100 | > 100 | > 100 | –
CCOC(=O)c1c(N)n(-c2ccccc2)c(=O)n(-c2ccccc2)c1=O | – | – | > 100 | – | – | > 100 | > 100 | > 100 | > 100 | > 100 | > 100 | > 100 | > 100 | > 100 | > 100 | > 100 | > 100 | > 100 | > 100 | > 100
COc1cc(NS(C)(=O)=O)ccc1Nc1cc[nH]c2ccc3nccc3c12 | 30.7 | 40.9 | 41.4 | 51.3 | 24.7 | > 100 | 31.3 | 35.9 | 29.8 | 29.7 | – | 29.8 | 29.9 | – | 41 | 30.3 | 27.3 | 33.2 | > 100 | 28.7
CC(ON(C(c1ccccc1)C(C)C)C(C)(C)C)c1ccccc1 (stereo not given) | – | 39.3 | 32.5 | 29 | 33.9 | > 100 | 43.5 | 30 | 63.9 | > 100 | 31.2 | 29.7 | 35.9 | 42.9 | 31.6 | 46.2 | 30.9 | 47.1 | 43.3 | 71.6
C#C[C@]1(O)CC[C@H]2[C@@H]3CCC4=C/C(=N/OCCN(C)C)CC[C@]4(C)[C@H]3CC[C@@]21C | > 100 | 83.1 | > 100 | > 100 | > 100 | > 100 | > 100 | > 100 | > 100 | > 100 | – | 78.3 | > 100 | > 100 | > 100 | > 100 | > 100 | > 100 | > 100 | 60.6
O=c1[nH]c(Cc2ccccc2)nc2c1sc1nc3ccccc3n12 | > 100 | > 100 | > 100 | > 100 | > 100 | > 100 | > 100 | > 100 | > 100 | > 100 | > 100 | > 100 | > 100 | > 100 | > 100 | > 100 | > 100 | > 100 | > 100 | –
CC(=O)O[C@H]1C(=O)[C@@]2(C)[C@H]([C@H](OC(=O)c3cccc([N+](=O)[O-])c3)[C@]3(O)C[C@H](OC(=O)[C@H](O)[C@@H](NC(=O)c4ccccc4)c4ccccc4)C(C)=C1C3(C)C)[C@]1(OC(C)=O)CO[C@@H]1C[C@@H]2O | 18.5 | – | – | > 25 | > 25 | > 25 | – | > 17.1 | – | > 25 | – | > 9.01 | > 25 | 0.295 | > 25 | > 21.8 | – | > 25 | > 25 | –
CC(C)=CCC[C@@H](C)/C=C/C=C(\C)C(=O)CC[C@@H]1CC[N@+]2(C)CCCC[C@H]12 | > 100 | – | > 100 | > 100 | > 100 | > 100 | – | > 100 | > 100 | > 100 | > 100 | > 100 | > 100 | > 100 | > 100 | > 100 | > 100 | > 100 | > 100 | > 100
OC(c1ccc(F)cc1)C(F)(F)c1nc2ccccc2o1 (stereo not given) | > 100 | > 100 | > 100 | > 100 | > 100 | > 100 | > 100 | > 100 | > 100 | > 100 | > 100 | > 100 | > 100 | > 100 | > 100 | > 100 | > 100 | > 100 | > 100 | –
COc1cc(OC)c2c(c1)OC(c1ccccc1)CC2=O (stereo not given) | – | > 10 | > 10 | > 10 | > 10 | > 10 | > 10 | > 10 | > 10 | > 10 | > 10 | > 10 | > 10 | > 10 | > 10 | > 10 | > 10 | > 10 | > 10 | > 10
Cc1nc(N)c(N2CCN(C(=O)O)CC2)c(=O)[nH]1 | > 100 | > 100 | > 100 | > 100 | > 100 | > 100 | > 100 | > 100 | > 100 | > 100 | – | – | > 100 | > 100 | > 100 | > 100 | > 100 | > 100 | > 100 | > 100
CCOc1cc(C2SCC(=O)N2c2ccc(Oc3ccc(Cl)cc3)c(Cl)c2)ccc1O (stereo not given) | – | 49.5 | 41.3 | 33.4 | 25.1 | 37 | 31.8 | 56.4 | 32.3 | 31.1 | – | 31.5 | 34.8 | 37.3 | 37.7 | 34.2 | 35.7 | 33.3 | 21.7 | 32.4
CC(C)(O)/C=C\P(=O)(O)O | – | – | > 100 | > 100 | > 100 | > 100 | > 100 | > 100 | > 100 | > 100 | > 100 | > 100 | > 100 | > 100 | > 100 | > 100 | > 100 | > 100 | – | > 100
N#Cc1nc(CCN2C(=O)c3ccccc3C2=O)oc1N | – | > 100 | > 100 | > 100 | > 100 | > 100 | > 100 | > 100 | > 100 | > 100 | > 100 | > 100 | > 100 | – | > 100 | > 100 | > 100 | > 100 | > 100 | > 100
CC1(C)O[C@@H]([C@H](O)CO)[C@H](O)[C@@H](C2SCCCS2)O1 | > 100 | – | > 100 | > 100 | > 100 | > 100 | > 100 | > 100 | > 100 | > 100 | > 100 | > 100 | > 100 | > 100 | > 100 | > 100 | > 100 | > 100 | > 100 | –
